This is an account of results in ChEMBL document CHEMBL1151033, “Tricyclic cephems as inhibitors of human leukocyte elastase. Furo[3,4-c]cepham sulfones” (Bioorg Med Chem Lett, 1995).

What is called half-life is how long it takes for the measured level to halve.

A short description of series [1]: Hydrolytic stability at 37 degrees Celsius in 50 mM phosphate buffer (2 % v/v MeCN as solubilising vehicle) at pH 7.4. Type of series: physicochemical.
For series [2], the target named is T1, Neutrophil elastase (Homo sapiens) (UniProt P08246).
T1 sequence (whole entry): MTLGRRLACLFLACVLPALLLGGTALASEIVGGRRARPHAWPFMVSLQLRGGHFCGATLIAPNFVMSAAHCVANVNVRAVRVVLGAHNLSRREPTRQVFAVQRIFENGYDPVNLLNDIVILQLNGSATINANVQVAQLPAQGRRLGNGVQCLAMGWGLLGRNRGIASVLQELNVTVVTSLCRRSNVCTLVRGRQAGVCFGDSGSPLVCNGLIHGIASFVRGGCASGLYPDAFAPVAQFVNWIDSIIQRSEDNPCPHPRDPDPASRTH
In words: Inhibitory activity against human leukocyte elastase (HLE) expressed as second order inhibition rate constant.

SMILES strings stand for the structures.

`CO[C@H]1C(=O)N2C(C(=O)C(C)(C)C)=C(C)CS(=O)(=O)[C@H]12` gave a half-life in series [1] of 104 h.

Compound `CO[C@H]1C(=O)N2c3c(coc3C(C)(C)C)[C@@H](CC(=O)OC(C)(C)C)S(=O)(=O)[C@H]12` came in with a k on in series [2] of 1100 M⁻¹ s⁻¹.

Consider `CO[C@H]1C(=O)N2c3c(coc3C(C)(C)C)CS(=O)(=O)[C@H]12`, for which the half-life in series [1] was 180 h. The k on in series [2] was determined as 500 M⁻¹ s⁻¹.

Regarding `CO[C@H]1C(=O)N2c3c(coc3C(C)(C)C)[C@@H](C)S(=O)(=O)[C@H]12`, in series [1], the half-life was 140 h. Also, the k on in series [2] was determined as 1000 M⁻¹ s⁻¹.

Regarding `CO[C@H]1C(=O)N2c3c(coc3C(C)(C)C)[C@]3(CC3(c3ccccc3)c3ccccc3)S(=O)(=O)[C@H]12`, in series [1], the half-life is 520 h. Also, the k on in series [2] was determined as 8800 M⁻¹ s⁻¹.

Turning to `CO[C@H]1C(=O)N2c3c(coc3-c3ccccc3)CS(=O)(=O)[C@H]12`, in series [1], the half-life is 71 h. The compound also displayed a k on in series [2] of 2000 M⁻¹ s⁻¹.

Regarding `CO[C@H]1C(=O)N2C(C(=O)c3ccccc3)=C(C)CS(=O)(=O)[C@H]12`, in series [1], the half-life is 26 h.
